Measurements from BindingDB's records for doi:10.1021/cb600303y (Rutgers University, 2006).

Columns and labels:
[1] = molecular target: T1, Gag-Pol polyprotein [600-1028,C879S]/[600-1151,C879S] (Human immunodeficiency virus 1, UniProt P03366, C879S); assay: Assay of RT RNH Activity; settings: pH 8; 37 °C
T1 construct: 600-1028; 600-1151
Protocol: (§1) To assess the effect of inhibitors, RT RNH activity was measured using a FRET-based microplate fluorescence assay. Briefly, the RNA-DNA hybrid duplex was added to individual wells of a 96-well microplate containing test compound. Reactions were initiated by the addition of HIV-1 RT and allowed to proceed at 37 deg C for 30 min. Reactions were quenched by the addition of EDTA (0.5 M).

[2] = molecular target: T1, Gag-Pol polyprotein [600-1028,C879S]/[600-1151,C879S]; assay: Assay of RT RNA-Dependent DNA Polymerase (RDDP) Activity; settings: pH 7.8; 37 °C
Protocol: HIV-1 RT RDDP activity was generally determined by a fixed time assay. Briefly, reaction mixtures contained p51/p66 RT, template-primer, and [3H]-TTP substrate. Aliquots of DMSO solutions containing the inhibitor were added such that the final DMSO concentration was < 2%. Reaction assays were incubated at 37 deg C for 10-20 min and then quenched with sodium pyrophosphate in 10% trichloroacetic acid (TCA). The samples were then filtered on Whatman 934-AH glass fiber filters and washed with 10% TCA and ethanol, and the radioactivity determined by liquid scintillation spectrometry.

[3] = molecular target: T2, Gag-Pol polyprotein [600-1028,Y780C]/[600-1151,Y780C] (Human immunodeficiency virus 1, UniProt P03366, Y780C); assay: Assay of RT RNH Activity
T2 construct: 600-1028; 600-1151
Protocol: as §1

[4] = molecular target: T3, Gag-Pol polyprotein [600-1028,L699I,K702N,C879S]/[600-1151,L699I,K702N,C879S] (Human immunodeficiency virus 1, UniProt P03366, C879S/K702N/L699I); assay: Assay of RT RNH Activity
T3 construct: 600-1028; 600-1151
Protocol: as §1

[5] = molecular target: T4, Gag-Pol polyprotein [600-1028,V705A,Y780C,C879S]/[600-1151,V705A,Y780C,C879S] (Human immunodeficiency virus 1, UniProt P03366, C879S/V705A/Y780C); assay: Assay of RT RNH Activity
T4 construct: 600-1028; 600-1151
Protocol: as §1

[6] = molecular target: T5, Gag-Pol polyprotein [600-1028,Y787L]/[600-1151,Y787L] (Human immunodeficiency virus 1, UniProt P03366, Y787L); assay: Assay of RT RNH Activity
T5 construct: 600-1028; 600-1151
Protocol: as §1

[7] = molecular target: T6, Gag-Pol polyprotein [600-1028,D666N,K669R,T814F,K818Q,C879S]/[600-1151,D666N,K669R,T814F,K818Q,C879S] (Human immunodeficiency virus 1, UniProt P03366, C879S/D666N/K669R/K818Q/T814F); assay: Assay of RT RNH Activity
T6 construct: 600-1028; 600-1151
Protocol: as §1

## COc1ccc2ccccc2c1/C=N/NC(=O)c1ccccc1 [dihydroxy benzoyl naphthyl hydrazone (DHBNH) analogue, 1]
[1]
  IC50: 15000 nM
[2]
  IC50: > 50000 nM

## COc1ccc2ccccc2c1/C=N/NC(=O)c1ccc(C)cc1 [dihydroxy benzoyl naphthyl hydrazone (DHBNH) analogue, 2]
[1]
  IC50: 15000 nM
[2]
  IC50: > 50000 nM

## COc1ccc(C(=O)N/N=C/c2c(OC)ccc3ccccc23)cc1 [dihydroxy benzoyl naphthyl hydrazone (DHBNH) analogue, 3]
[1]
  IC50: 12000 nM
[2]
  IC50: > 50000 nM

## COc1ccc2ccccc2c1/C=N/NC(=O)c1ccc(N(C)C)cc1 [dihydroxy benzoyl naphthyl hydrazone (DHBNH) analogue, 4]
[1]
  IC50: 2000 nM
[2]
  IC50: > 50000 nM

## COc1ccc2ccccc2c1/C=N/NC(=O)c1ccc(C(C)(C)C)cc1 [dihydroxy benzoyl naphthyl hydrazone (DHBNH) analogue, 5]
[1]
  IC50: 3000 nM
[2]
  IC50: 2000 nM

## COc1ccc2ccccc2c1/C=N/NC(=O)c1ccc(-c2ccccc2)cc1 [dihydroxy benzoyl naphthyl hydrazone (DHBNH) analogue, 6]
[1]
  IC50: 5000 nM
[2]
  IC50: 500 nM

## COc1ccc2ccccc2c1/C=N/NC(=O)c1ccc(Oc2ccccc2)cc1 [dihydroxy benzoyl naphthyl hydrazone (DHBNH) analogue, 7]
[1]
  IC50: 7000 nM
[2]
  IC50: 400 nM

## COc1ccc2ccccc2c1/C=N/NC(=O)C1CCC(c2ccc(Cl)cc2)CC1 (stereo not drawn) [dihydroxy benzoyl naphthyl hydrazone (DHBNH) analogue, 8]
[1]
  IC50: 7500 nM
[2]
  IC50: 1000 nM

## COc1ccc2ccccc2c1/C=N/NC(=O)c1ccc(O)c(O)c1 [dihydroxy benzoyl naphthyl hydrazone (DHBNH)]
[3]
  IC50: 650 nM
[1]
  IC50: 500 nM
[4]
  IC50: 700 nM
[5]
  IC50: 850 nM
[6]
  IC50: 1200 nM
[7]
  IC50: 500 nM
[2]
  IC50: > 25000 nM
